The target of one test is PARP in C41 cells (Homo sapiens (Human), UniProt P09874).
Test [1] addresses Recombinant Human Poly(ADP-Ribose) Polymerase (PARP), PARP-1 (Homo sapiens (Human), UniProt P09874). Conditions: read-out: PARP-1 (Ki).
The mark [2] stands for this setting: Table 2, A2 is C1-alkyl versus no A2 (bond).
[3] abbreviates: Table 3, H analogs versus para-F analogs.
[4] abbreviates: Table 3, C41 cells, ratio to comparator EC50.
Where [5] appears, read: Table 1, text calls the values EC50s.

Each structure is given as a SMILES string. Like-named read-outs stand apart in the source and are kept apart here.

PARP in C41 cells, sequence (P09874 whole entry): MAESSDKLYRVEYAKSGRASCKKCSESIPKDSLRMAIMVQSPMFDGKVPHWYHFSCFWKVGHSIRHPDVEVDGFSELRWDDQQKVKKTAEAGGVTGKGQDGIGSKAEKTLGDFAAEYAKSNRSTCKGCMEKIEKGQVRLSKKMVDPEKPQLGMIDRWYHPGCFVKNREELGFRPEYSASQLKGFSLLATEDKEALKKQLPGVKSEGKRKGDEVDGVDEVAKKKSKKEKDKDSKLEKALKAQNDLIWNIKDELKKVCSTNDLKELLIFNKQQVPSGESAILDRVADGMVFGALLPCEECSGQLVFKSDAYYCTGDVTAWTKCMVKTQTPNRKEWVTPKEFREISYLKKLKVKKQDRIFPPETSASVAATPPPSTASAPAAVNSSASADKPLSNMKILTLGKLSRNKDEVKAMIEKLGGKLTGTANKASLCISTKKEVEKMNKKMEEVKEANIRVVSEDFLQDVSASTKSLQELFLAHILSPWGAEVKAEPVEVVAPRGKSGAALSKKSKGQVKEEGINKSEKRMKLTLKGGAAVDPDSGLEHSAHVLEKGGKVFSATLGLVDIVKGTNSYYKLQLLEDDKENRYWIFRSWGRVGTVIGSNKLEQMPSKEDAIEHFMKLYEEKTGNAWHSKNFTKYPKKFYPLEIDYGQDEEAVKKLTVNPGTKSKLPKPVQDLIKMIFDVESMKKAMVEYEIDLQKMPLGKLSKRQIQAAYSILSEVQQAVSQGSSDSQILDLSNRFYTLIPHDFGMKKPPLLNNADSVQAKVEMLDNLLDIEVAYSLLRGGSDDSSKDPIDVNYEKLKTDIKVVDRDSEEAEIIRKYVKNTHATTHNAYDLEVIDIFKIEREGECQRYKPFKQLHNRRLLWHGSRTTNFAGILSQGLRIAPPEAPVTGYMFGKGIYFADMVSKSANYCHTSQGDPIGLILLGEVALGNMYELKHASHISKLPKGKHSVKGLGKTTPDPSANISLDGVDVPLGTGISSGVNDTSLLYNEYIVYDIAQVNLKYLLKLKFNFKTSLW
Recombinant Human Poly(ADP-Ribose) Polymerase (PARP), PARP-1, sequence (P09874 whole entry): as above

The term Ki denotes a dissociation constant, usually derived from enzyme kinetics or from competition with a known ligand. As to `O=C1CCN1c1cc(Cc2n[nH]c(=O)c3c2CCCC3)ccc1F`, the “Cell Ratio EC50” value on PARP in C41 cells (Table 2, C41 cells, ratio to comparator EC50) turned out to be 16.4. Further, in test [1] (setting [2]), the Ki turned out to be 6 nM.

Take `NCC(=O)Nc1cc(Cc2n[nH]c(=O)c3c2CCCC3)ccc1F`: the “Cell EC50 ratio” value at PARP in C41 cells turned out to be 5.8. Besides, the Ki in test [1] (setting [3]) was 2.9 nM.

`O=C(Nc1cc(Cc2n[nH]c(=O)c3c2CCCC3)ccc1F)C1CNC1`: the “Cell EC50 ratio” value on PARP in C41 cells is 34.4. Further, the Ki in test [1] (setting [3]) amounted to 0.7 nM.

With `O=C1CCC(=O)N1c1cccc(Cc2n[nH]c(=O)c3c2CCCC3)c1`, on PARP in C41 cells (setting [4]), the “Cell EC50 ratio” value amounted to 1.7. In addition, in test [1] (setting [3]), the inhibition constant Ki stood at 2 nM.

As to `O=C1CCC(=O)N1c1cc(Cc2n[nH]c(=O)c3c2CCCC3)ccc1F`, the “Cell EC50 ratio” value on PARP in C41 cells (setting [4]) is 0.19. In test [1] (setting [3]), the inhibitory constant (Ki) stood at 1.1 nM.

As to `O=C(CCN1CCCCC1)Nc1cc(Cc2n[nH]c(=O)c3c2CCCC3)ccc1F`, on PARP in C41 cells, the “Cell EC50 ratio” value was found to be 5.6. The Ki in test [1] (setting [3]) came to 18.4 nM.

Consider `CN(C)CCN(C)C(=O)c1cccc(Cc2n[nH]c(=O)c3c2CCCC3)c1`, for which the “Cell EC50 ratio” value on PARP in C41 cells (setting [4]) is 3. The Ki in test [1] (setting [3]) was found to be 13 nM.

Consider `O=C(NC1CCN(C(=O)c2cc(Cc3n[nH]c(=O)c4c3NCCC4)ccc2F)CC1)c1ccc2cn[nH]c2c1` [Example 749, N-(1-{2-fluoro-5-[(5-oxo-1,2,3,4,5,6-hexahydropyrido[2,3-d]pyridazin-8-yl)methyl]benzoyl}piperidin-4-yl)-1H-indazole-6-carboxamide], for which the inhibition constant (Ki) in test [1] (setting [5]) was 1.4 nM.

In the case of `O=C(NC1CCN(C(=O)c2cc(Cc3n[nH]c(=O)c4c3NCCC4)ccc2F)CC1)c1ccco1` [Example 750, N-(1-{2-fluoro-5-[(5-oxo-1,2,3,4,5,6-hexahydropyrido[2,3-d]pyridazin-8-yl)methyl]benzoyl}piperidin-4-yl)-2-furamide], the Ki in test [1] (setting [5]) turned out to be 1.1 nM.

For `O=C(NC1CCN(C(=O)c2cc(Cc3n[nH]c(=O)c4c3NCCC4)ccc2F)CC1)c1cscn1` [Example 751, N-(1-{2-fluoro-5-[(5-oxo-1,2,3,4,5,6-hexahydropyrido[2,3-d]pyridazin-8-yl)methyl]benzoyl}piperidin-4-yl)-1,3-thiazole-4-carboxamide], the inhibition constant (Ki) in test [1] (setting [5]) worked out at 1.5 nM.

With `CN(C(=O)C1CCC1)c1cc(Cc2n[nH]c(=O)c3c2CCCC3)ccc1F` [Example 753, N-{2-fluoro-5-[(4-oxo-3,4,5,6,7,8-hexahydrophthalazin-1-yl)methyl]phenyl}-N-methylcyclobutanecarboxamide], the Ki in test [1] (setting [5]) is 92 nM.

`Cc1nc2cc(C(=O)N3CCN(C(=O)c4cc(Cc5n[nH]c(=O)c6c5CCCC6)ccc4F)CC3)ccc2[nH]1` [Example 754, 4-[4-fluoro-3-({4-[(2-methyl-1H-benzimidazol-5-yl)carbonyl]piperazin-1-yl}carbonyl)benzyl]-5,6,7,8-tetrahydrophthalazin-1(2H)-one]: the Ki in test [1] (setting [5]) came out at 0.6 nM.

For `O=C(c1cc(Cc2n[nH]c(=O)c3c2CCCC3)ccc1F)N1CCN(C(=O)c2cccnc2Cl)CC1` [Example 755, 4-[3-({4-[(2-chloropyridin-3-yl)carbonyl]piperazin-1-yl}carbonyl)-4-fluorobenzyl]-5,6,7,8-tetrahydrophthalazin-1(2H)-one], in test [1] (setting [5]), the Ki came out at 1.5 nM.

For the molecule `O=C(c1cc(Cc2n[nH]c(=O)c3c2CCCC3)ccc1F)N1CCN(c2cccnc2)CC1` [Example 756, 4-{4-fluoro-3-[(4-pyridin-3-ylpiperazin-1-yl)carbonyl]benzyl}-5,6,7,8-tetrahydrophthalazin-1(2H)-one], the Ki in test [1] (setting [5]) is 0.9 nM.

As to `O=C(c1cc(Cc2n[nH]c(=O)c3c2CCCC3)ccc1F)N1CCN(c2cncnc2)CC1` [Example 757, 4-{4-fluoro-3-[(4-pyrimidin-5-ylpiperazin-1-yl)carbonyl]benzyl}-5,6,7,8-tetrahydrophthalazin-1(2H)-one], the Ki in test [1] (setting [5]) was 1.2 nM.

With `O=C(NC1CCN(C(=O)c2cc(Cc3n[nH]c(=O)c4c3NCCC4)ccc2F)CC1)c1cn[nH]c1` [Example 758, N-(1-{2-fluoro-5-[(5-oxo-1,2,3,4,5,6-hexahydropyrido[2,3-d]pyridazin-8-yl)methyl]benzoyl}piperidin-4-yl)-1H-pyrazole-4-carboxamide], the Ki in test [1] (setting [5]) was determined as 1.4 nM.

In the case of `CN1CCN(C(=O)c2cc(Cc3n[nH]c(=O)c4c3CCCC4)ccc2F)CC1=O` [Example 759, 4-{4-fluoro-3-[(4-methyl-3-oxopiperazin-1-yl)carbonyl]benzyl}-5,6,7,8-tetrahydrophthalazin-1(2H)-one], the Ki in test [1] (setting [5]) was determined as 0.3 nM.

As for `CCN(CCNC(=O)C1CC1)C(=O)c1cc(Cc2n[nH]c(=O)c3c2CCCC3)ccc1F` [Example 761, N-{2-[(cyclopropylcarbonyl)amino]ethyl}-N-ethyl-2-fluoro-5-[(4-oxo-3,4,5,6,7,8-hexahydrophthalazin-1-yl)methyl]benzamide], the inhibition constant (Ki) in test [1] (setting [5]) was determined as 0.6 nM.

`CCN(CCNC(=O)c1c(F)cccc1F)C(=O)c1cc(Cc2n[nH]c(=O)c3c2CCCC3)ccc1F` [Example 762, N-{2-[(2,6-difluorobenzoyl)amino]ethyl}-N-ethyl-2-fluoro-5-[(4-oxo-3,4,5,6,7,8-hexahydrophthalazin-1-yl)methyl]benzamide]: the Ki in test [1] (setting [5]) came out at 1 nM.

In the case of `CCN(CCNC(=O)c1cccnc1)C(=O)c1cc(Cc2n[nH]c(=O)c3c2CCCC3)ccc1F` [Example 763, N-[2-(ethyl{2-fluoro-5-[(4-oxo-3,4,5,6,7,8-hexahydrophthalazin-1-yl)methyl]benzoyl}amino)ethyl]nicotinamide], in test [1] (setting [5]), the inhibition constant Ki came out at 1 nM.

For `O=C1CCCN1c1cc(Cc2n[nH]c(=O)c3c2CCCC3)ccc1F` [drawing 7], the “Cell Ratio EC50” value on PARP in C41 cells is 0.85. The Ki in test [1] (setting [2]) was found to be 1.2 nM.

`O=C1CCCN1c1cc(-c2n[nH]c(=O)c3c2CCCC3)ccc1F` [drawing 8]: the Ki in test [1] (setting [2]) is 191 nM.

As for `NCC(=O)Nc1cccc(Cc2n[nH]c(=O)c3c2CCCC3)c1` [drawing 10], the “Cell EC50 ratio” value on PARP in C41 cells (setting [4]) came to 22.5. In addition, the Ki in test [1] (setting [3]) came to 12 nM.

Regarding `O=C(Nc1cccc(Cc2n[nH]c(=O)c3c2CCCC3)c1)C1CNC1` [drawing 12], the “Cell EC50 ratio” value on PARP in C41 cells is reported as 246. For the same molecule, in test [1] (setting [3]), the inhibition constant (Ki) came out at 6.3 nM.

`COc1ccc(C(=O)CCC(=O)Nc2cccc(Cc3n[nH]c(=O)c4c3CCCC4)c2)cc1` [drawing 14]: the “Cell EC50 ratio” value on PARP in C41 cells (setting [4]) stood at 20.9. In addition, the inhibition constant (Ki) in test [1] (setting [3]) was determined as 1.9 nM.

For the molecule `COc1ccc(C(=O)CCC(=O)Nc2cc(Cc3n[nH]c(=O)c4c3CCCC4)ccc2F)cc1` [drawing 15], on PARP in C41 cells (setting [4]), the “Cell EC50 ratio” value worked out at 2.6. Moreover, the Ki in test [1] (setting [3]) came out at 0.7 nM.

Take `O=C1CCCN1c1cccc(Cc2n[nH]c(=O)c3c2CCCC3)c1` [drawing 16]: the “Cell EC50 ratio” value on PARP in C41 cells (setting [4]) was found to be 40.9. Moreover, in test [1] (setting [3]), the inhibition constant (Ki) was determined as 39.6 nM.

Take `O=C1CCCN1c1cc(Cc2n[nH]c(=O)c3c2CCCC3)ccc1F` [drawing 17]: at PARP in C41 cells, the “Cell EC50 ratio” value was determined as 0.85. For the same molecule, the inhibition constant (Ki) in test [1] (setting [3]) was found to be 1.2 nM.

Turning to `O=C(CCCC(=O)Nc1cccc(Cc2n[nH]c(=O)c3c2CCCC3)c1)Nc1ccccc1` [drawing 20], on PARP in C41 cells (setting [4]), the “Cell EC50 ratio” value was 3.2. For the same molecule, the inhibition constant Ki in test [1] (setting [3]) was determined as 3.2 nM.

For the molecule `O=C(CCCC(=O)Nc1cc(Cc2n[nH]c(=O)c3c2CCCC3)ccc1F)Nc1ccccc1` [drawing 21], the “Cell EC50 ratio” value at PARP in C41 cells (setting [4]) came out at 0.34. Moreover, in test [1] (setting [3]), the inhibition constant (Ki) was found to be 0.6 nM.

For `Cc1c(C(=O)Nc2cccc(Cc3n[nH]c(=O)c4c3CCCC4)c2)cnn1-c1ccccc1` [drawing 22], the “Cell EC50 ratio” value at PARP in C41 cells (setting [4]) was 14.1. The inhibitory constant (Ki) in test [1] (setting [3]) turned out to be 9 nM.

`Cc1c(C(=O)Nc2cc(Cc3n[nH]c(=O)c4c3CCCC4)ccc2F)cnn1-c1ccccc1` [drawing 23]: the “Cell EC50 ratio” value at PARP in C41 cells (setting [4]) turned out to be 17.6. Also, in test [1] (setting [3]), the Ki came out at 15.8 nM.

With `O=C(CCN1CCCCC1)Nc1cccc(Cc2n[nH]c(=O)c3c2CCCC3)c1` [drawing 24], in test [1] (setting [3]), the Ki is 280 nM.

Take `O=C(c1cccc(Cc2n[nH]c(=O)c3c2CCCC3)c1)N1CCN(c2ncccn2)CC1` [drawing 26]: on PARP in C41 cells (setting [4]), the “Cell EC50 ratio” value is 0.93. In test [1] (setting [3]), the inhibitory constant (Ki) came to 0.8 nM.

With `O=C(c1cc(Cc2n[nH]c(=O)c3c2CCCC3)ccc1F)N1CCN(c2ncccn2)CC1` [drawing 27], the “Cell EC50 ratio” value at PARP in C41 cells (setting [4]) is 0.3. Besides, the Ki in test [1] (setting [3]) was found to be 0.7 nM.

For the molecule `CC(=O)N1CCN(C(=O)c2cccc(Cc3n[nH]c(=O)c4c3CCCC4)c2)CC1` [drawing 28], the “Cell EC50 ratio” value at PARP in C41 cells is 6.1. In addition, in test [1] (setting [3]), the inhibition constant Ki is 3 nM.

For `CC(=O)N1CCN(C(=O)c2cc(Cc3n[nH]c(=O)c4c3CCCC4)ccc2F)CC1` [drawing 29], on PARP in C41 cells (setting [4]), the “Cell EC50 ratio” value stood at 2.3. In addition, the inhibition constant (Ki) in test [1] (setting [3]) came out at 0.1 nM.

As to `CCN1CCN(C(=O)c2cccc(Cc3n[nH]c(=O)c4c3CCCC4)c2)CC1` [drawing 30], at PARP in C41 cells (setting [4]), the “Cell EC50 ratio” value amounted to 1.8. For the same molecule, the Ki in test [1] (setting [3]) came out at 10 nM.

For `CCN1CCN(C(=O)c2cc(Cc3n[nH]c(=O)c4c3CCCC4)ccc2F)CC1` [drawing 31], the “Cell EC50 ratio” value on PARP in C41 cells (setting [4]) was found to be 0.4. The Ki in test [1] (setting [3]) was determined as 1.8 nM.

For `O=C(c1cccc(Cc2n[nH]c(=O)c3c2CCCC3)c1)N1CCN(c2ccccn2)CC1` [drawing 32], the “Cell EC50 ratio” value on PARP in C41 cells (setting [4]) is 1.9. The inhibition constant (Ki) in test [1] (setting [3]) came to 3 nM.

Turning to `O=C(c1cc(Cc2n[nH]c(=O)c3c2CCCC3)ccc1F)N1CCN(c2ccccn2)CC1` [drawing 33], the “Cell EC50 ratio” value at PARP in C41 cells (setting [4]) is 0.4. Also, the Ki in test [1] (setting [3]) is 2 nM.

As to `O=C(c1cccc(Cc2n[nH]c(=O)c3c2CCCC3)c1)N1CCN(c2ccccc2)CC1` [drawing 34], at PARP in C41 cells (setting [4]), the “Cell EC50 ratio” value is 3.2. Besides, the Ki in test [1] (setting [3]) amounted to 3 nM.

On to `O=C(c1cc(Cc2n[nH]c(=O)c3c2CCCC3)ccc1F)N1CCN(c2ccccc2)CC1` [drawing 35], for which, on PARP in C41 cells (setting [4]), the “Cell EC50 ratio” value came out at 0.9. Moreover, in test [1] (setting [3]), the Ki amounted to 3 nM.

Turning to `O=C(c1cccc(Cc2n[nH]c(=O)c3c2CCCC3)c1)N1CCN(c2ccccc2Cl)CC1` [drawing 36], the “Cell EC50 ratio” value at PARP in C41 cells (setting [4]) was 15. Besides, the inhibition constant Ki in test [1] (setting [3]) is 10 nM.

In the case of `O=C(c1cccc(Cc2n[nH]c(=O)c3c2CCCC3)c1)N1CCN(c2ccccc2F)CC1` [drawing 38], the inhibitory constant (Ki) in test [1] (setting [3]) worked out at 4 nM.

On to `NC(=O)C1CCCN(C(=O)c2cccc(Cc3n[nH]c(=O)c4c3CCCC4)c2)C1` (stereo not drawn) [drawing 44], for which the Ki in test [1] (setting [3]) turned out to be 19 nM.
